From article PMC2685281 (Journal of organometallic chemistry, 2009)
Where two headings read alike, the source gives them in different places.

Assays:
[1] = target: T1, lipoic acid groups of the pyruvate dehydrogenase complex (Sus scrofa, UniProt A0A4X1TBD2); format: binding, porcine
T1 sequence (A0A4X1TBD2 1-647): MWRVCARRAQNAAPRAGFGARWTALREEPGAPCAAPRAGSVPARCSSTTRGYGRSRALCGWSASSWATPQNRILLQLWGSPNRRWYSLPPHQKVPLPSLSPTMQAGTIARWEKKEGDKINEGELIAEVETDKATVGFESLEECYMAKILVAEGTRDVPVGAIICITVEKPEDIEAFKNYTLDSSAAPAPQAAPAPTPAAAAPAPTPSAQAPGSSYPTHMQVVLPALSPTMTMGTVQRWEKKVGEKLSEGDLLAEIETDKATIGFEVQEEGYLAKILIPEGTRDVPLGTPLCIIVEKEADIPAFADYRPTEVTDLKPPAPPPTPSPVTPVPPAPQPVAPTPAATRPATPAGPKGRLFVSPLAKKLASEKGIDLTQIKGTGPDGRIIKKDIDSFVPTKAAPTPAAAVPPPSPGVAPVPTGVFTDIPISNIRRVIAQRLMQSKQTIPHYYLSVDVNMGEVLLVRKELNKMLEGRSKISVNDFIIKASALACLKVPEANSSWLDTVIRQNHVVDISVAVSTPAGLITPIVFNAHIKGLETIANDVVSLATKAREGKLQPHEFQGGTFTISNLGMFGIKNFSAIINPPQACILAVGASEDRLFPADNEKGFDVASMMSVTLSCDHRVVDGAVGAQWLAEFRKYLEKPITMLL

[2] = target: T2, lipoic acid groups of the α-ketoglutarate dehydrogenase complex (Sus scrofa, UniProt Q9N0F1); format: binding, porcine
T2 sequence (Q9N0F1 69-455): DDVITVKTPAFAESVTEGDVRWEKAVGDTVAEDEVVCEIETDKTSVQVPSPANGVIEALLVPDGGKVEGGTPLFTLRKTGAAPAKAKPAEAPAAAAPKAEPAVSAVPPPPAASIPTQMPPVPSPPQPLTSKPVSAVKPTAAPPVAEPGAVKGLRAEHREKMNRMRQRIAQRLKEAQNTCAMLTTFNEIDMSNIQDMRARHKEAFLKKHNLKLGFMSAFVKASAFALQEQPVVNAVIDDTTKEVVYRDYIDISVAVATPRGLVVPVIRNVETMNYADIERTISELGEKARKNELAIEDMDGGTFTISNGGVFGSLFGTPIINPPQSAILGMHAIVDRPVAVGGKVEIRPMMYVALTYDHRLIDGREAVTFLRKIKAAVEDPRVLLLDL

[3] = target: α-ketoglutarate dehydrogenase (KGDH) complex (Sus scrofa, UniProt Q9N0F1); format: biochemical, porcine
PDH complex = conditions: read-out: IC50, PDH inhibition; cited from earlier work
[4] = target: pyruvate dehydrogenase (PDH) complex; format: biochemical, porcine
reduced thiol groups = conditions: read-out: dissociation constants (Kd) for reduced thiol groups; cited from earlier work

In the case of Dimethylarsonous iodide [DMA ^3+], the “Loss of recognition of lipoic acid groups by anti-lipoic acid antibody, PDH” value [1] is reported as “strong interference” and the “Loss of recognition of lipoic acid groups by anti-lipoic acid antibody, KGDH” value [2] is reported as “strong interference”.
In the case of Sodium arsenite [As ^3+], the “50% enzyme inhibition (IC50), KGDH, half hour incubation” value [3] is reported as 733 ppb, the “50% enzyme inhibition (IC50), KGDH, one hour incubation” value [3] is reported as 488 ppb and the IC50 ([3]; read-out: 50% enzyme inhibition (IC50), KGDH, half hour incubation) is reported as 9.78 µM. For the same substance, the IC50 ([3]; read-out: 50% enzyme inhibition (IC50), KGDH, one hour incubation) was 6.51 µM, the IC50 (PDH complex) was 116 µM and the “50% enzyme inhibition (IC50), PDH, half hour incubation” value [4] was 704 ppb. For the same substance, the “50% enzyme inhibition (IC50), PDH, one hour incubation” value [4] was 267 ppb, the IC50 ([4]; read-out: 50% enzyme inhibition (IC50), PDH, half hour incubation) was 9.39 µM and the IC50 ([4]; read-out: 50% enzyme inhibition (IC50), PDH, one hour incubation) was 3.56 µM. The Kd (reduced thiol groups) was 5 to 124 µM.
